Measurements as given in US20070217999A1, “Excretable Reporter Systems” (Roslin Institute (Edinburgh), priority 2003, published 2007).

Assays:
[1] = test system: rat Cyp1A1 promoter (Cyp1A1-SEAP reporter pCW2) in Hepa-C1C7 cells; experiment: 3MC induced Cyp1A1-SEAP vector (pCW2) expression in transfected cells, SEAP activity in medium; type: cell-based; conditions: 48 hours after induction
Protocol: The sequence coding for 55.5 kD secreted alkaline phosphatase (SEAP), a truncated form of placental alkaline phosphatase enzyme that lacks the GPI anchor, was excised from pSEAP2-Basic (Clonetech) by first converting a BsmI restriction site by removing 3′-overhanging sequences and addition of BglII linker, then excision with BglII.
Hepa-C1C7 cells (cultured in DMEM supplemented with 10% FCS, 2 mM 1-glutamine, at 5% CO2) were transfected with pCW2 either transiently or stably (in conjunction with pSVNeo) using the calcium phosphate co-precipitation method. Briefly, 5 μg of plasmid (+1 μg pSVNeo for stable transfections) was mixed with calcium chloride and HEPES buffered saline to form a calcium phosphate-DNA precipitate which was left incubating with the cells for 5 hours. The medium was then replaced with fresh growth medium or with selection medium (growth medium supplemented with 400 μg/ml G418, for stable transfections). Transiently transfected cells were plated into 6 well plates and were incubated with increasing doses of 3MC dissolved in culture medium. For stable transfections, once individual colonies could be identified on the plates the colonies were pooled and incubated with 2 μg/ml 3MC. Forty eight hours after induction with 3MC the medium was assayed for SEAP activity.
SEAP activity was determined using the “SEAP reporter Gene Assay, chemiluminescent” (Roche). […]

[2] = test system: Cyp1A1-SEAP transgene (rat Cyp1A1 promoter); experiment: 3MC induced Cyp1A1-SEAP vector expression in transgenic mice, SEAP activity in urine and blood
Protocol: 3MC was administered to female and male mice (of at least 8 weeks of age) as a suspension in Mazola brand corn oil by i.p. injection. Test animals were either transgenic or non-transgenic age-matched animals with the same genotype were i.p. injected once every 24 hours with either 40 mg/kg or 0.4 mg/kg body weight 3-methylcholanthrene (3MC) in maize oil for three consecutive injections. Control animals were injected with an equal volume of carrier corn oil only. All animals were killed by cervical dislocation 24 hours following the final dose.
Samples of the liver and kidney were removed, washed once in phosphate buffered saline and then homogenised in HB buffer (140 mM NaCl, 50 mM Tris-HCl pH 7.5, 1 mM EDTA, 1% w/v Triton X-100) using a dounce glass homogeniser until a smooth solution was formed. Insoluble proteins were removed by centrifugation at 13000 rpm for 5 minutes and the cleared supernatant was assayed for protein content using the Pierce protein determination kit. For each tissue a final concentration of 0.8 mg/ml was used in the SEAP assay.
Urine and blood samples were centrifuged at 5000 rpm for 5 minutes to remove any solid waste (from the urine) or coagulated cells (from the blood) and were assayed for SEAP activity immediately. Urine was used undiluted in the assay, whereas blood samples were diluted 1:100 and 1:500 with distilled water prior to the SEAP assay. SEAP activity was assayed as described in example 2.

[3] = test system: SFN-hCG(myc) reporter transgene (stratifin promoter) in PC3 xenograft tumours; experiment: Induced SFN-hCG(myc) transgene expression from xenografted PC3 cell line in vivo, urinary hCG(myc) by sandwich ELISA; parameters: species or system nude mice; conditions: single i.p. camptothecin 15 mg/kg; urine 24 hours after administration; versus vehicle only; FIG. 7
Protocol: The SFN-hCG(myc)-Amp reporter construct generated as described under example 5, was transfected into PC3 cells on 6-well tissue culture plates using FuGene reagent (Roche, Lewes, East Sussex). Construct DNA (equivalent to 1 μg/well) was added to FuGene reagent (3 μl/well) and made up to 100 μl/well with serum free medium. The medium in which the cells were growing was aspirated off and replaced with 100 μl of the above mixture per well. After 24 hours the cells were trypsinised and transferred to 10 cm tissue culture dishes (one well of a six well plate per 10 cm dish). The cells were allowed to grow on these dishes for 7 days prior to selection. […]
The study consisted of 4 groups in total, each containing 4 animals. […] Tumour growth was measured twice-weekly following cell implantation until tumours reached 2-5 mm in diameter. Tumour volume (V) was calculated using the formula: V= 4/3π((d1+d2)/4)^3, where d=mean diameter (n=2)
Treatment began 5 weeks after tumour implantation. […] Quantities of bound HRP were then determined by reaction with tetramethylbenzidine (TMB) and absorbance measurement at 450 nm. No hCG(myc) was detected in the urine of mice carrying xenograft tumours resulting from injection of wild-type PC3 cells. However, hCG(myc) was detected in the urine of mice carrying xenograft tumours resulting from injection of PC3 cells transfected with the SFN-hCG(myc) reporter construct.

Cc1ccc2cc3c(ccc4ccccc43)c3c2c1CC3 [3MC, 3-methylcholanthrene]
SEAP activity in medium (3MC induction of pCW2) ([1]; pCW2 stably-transfected into Hepa1 cells, 2 μg/ml 3MC, FIG. 3): induction | SEAP activity in medium (3MC induction of pCW2) ([1]; pCW2 transiently-transfected into Hepa1 cells, increasing doses of 3MC, FIG. 2): induction | SEAP in urine of CYS31 transgenic mice ([2]; 0.4 mg/kg 3MC i.p., FIG. 6): appearance of SEAP in urine | Cyp1a1-SEAP activity detected in urine and blood ([2]; 40 mg/kg 3MC i.p. once every 24 hours, three injections, 3 out of 4 founder transgenic mice analysed (CYS48, CYS50, CYS31, CYS74), FIG. 4): induction | SEAP activity detected in the urine of transgenic mice ([2]; 3MC i.p., FIG. 5): induced SEAP activity

CC[C@@]1(O)C(=O)OCc2c1cc1n(c2=O)Cc2cc3ccccc3nc2-1 [camptothecin]
urinary hCG(myc) concentration (absorbance at 450 nm) [3]: increased urinary hCG(myc)
